Assay results as given in US6608082B1, “Treatment of erectile dysfunction using isoquinoline compound melanocortin receptor ligands” (Lion Bioscience AG, priority 1998, dated 2003).
Like-named read-outs stand apart in the source and are kept apart here.

What was measured:
MCR-4 = target: T1, MCR-4 (Homo sapiens, UniProt P32245); experiment: Melanocortin receptor binding assay, competition with 125I-HP 467, HEK 293 cells expressing hMCR-4; conditions: read-out: MC-4 IC50
T1 construct: expressed in transfected cells; host or cells: HEK 293
Procedure, shortened: (§1)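 Intact-cell competition binding, 2.5 hr at 37 °C, in PBS/10% calf serum/1 mM CaCl2; hMCR-4 cells at 4×10^3 per tube, hMCR-1 cells at 2×10^4 per tube. Filtration on BSA/CaCl2-soaked GF/B, cold 50 mM Tris pH 7.4 washes, scintillation count.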

MCR-1 = target: T2, MCR-1 (Homo sapiens, UniProt Q01726); experiment: Melanocortin receptor binding assay, competition with 125I-HP 467, HEK 293 cells expressing hMCR-1; conditions: for IC50: read-out: MC-1 IC50; for % Disp. MC-1 10 μM: displacement of 125I-HP 467 at 10 μM isoquinoline compound
T2 construct: expressed in transfected cells; host or cells: HEK 293
Procedure, shortened: as §1

[1] = TRG 2405 section, inhibition of binding of 125I-HP 467, HEK 293 cells expressing MCR-4
[2] = TRG 2405 section, inhibition of binding of 125I-HP 467, HEK 293 cells expressing MCR-1
[3] = TRG 2406 and TRG 2407 libraries, inhibition of binding of 125I-HP 467

T2 sequence (Q01726 whole entry): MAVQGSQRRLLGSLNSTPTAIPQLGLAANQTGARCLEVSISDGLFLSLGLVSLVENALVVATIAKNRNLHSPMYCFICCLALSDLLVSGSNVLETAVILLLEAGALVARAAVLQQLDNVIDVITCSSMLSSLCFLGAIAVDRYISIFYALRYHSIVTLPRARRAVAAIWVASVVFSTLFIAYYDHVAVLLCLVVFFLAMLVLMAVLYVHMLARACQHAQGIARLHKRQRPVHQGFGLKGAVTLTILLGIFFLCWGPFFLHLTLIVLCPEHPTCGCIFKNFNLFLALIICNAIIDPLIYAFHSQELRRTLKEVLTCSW
T1 sequence (P32245 whole entry): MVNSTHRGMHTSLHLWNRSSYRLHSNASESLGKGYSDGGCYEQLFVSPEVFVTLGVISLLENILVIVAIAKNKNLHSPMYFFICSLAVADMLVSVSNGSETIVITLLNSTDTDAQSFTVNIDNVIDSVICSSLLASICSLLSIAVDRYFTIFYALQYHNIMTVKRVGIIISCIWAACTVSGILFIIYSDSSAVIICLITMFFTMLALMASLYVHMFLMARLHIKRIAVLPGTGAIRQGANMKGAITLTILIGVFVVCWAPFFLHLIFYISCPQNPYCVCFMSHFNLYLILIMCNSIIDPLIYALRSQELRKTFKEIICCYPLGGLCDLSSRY

| SMILES | IC50 (MCR-4; [1]) | IC50 (MCR-1; [2]) | % Disp. MC-1 10 μM (MCR-1; first of duplicate) | % Disp. MC-1 10 μM (MCR-1; second of duplicate) | IC50 (MCR-4; [3]) | IC50 (MCR-1; [3]) |
| --- | --- | --- | --- | --- | --- | --- |
| CNC(CN)CN1Cc2ccccc2C(CNC2CCCCC2)C1c1cccc(Oc2ccc(OC)cc2)c1 (stereo not shown) [TRG 2405-124] | 3.1 µM | 5.16 µM | 65.2% | 63% |  |  |
| CNC(CN)CN1Cc2ccccc2C(CNC2CCCCC2)C1c1ccc(F)c(Br)c1 (stereo not shown) [TRG 2405-126] | 12.8 µM | 5.34 µM | 52.4% | 58.4% |  |  |
| CNC(CN)CN1Cc2ccccc2C(CNC2CCCCC2)C1c1cccc(O)c1 (stereo not shown) [TRG 2405-133] | 12.4 µM | 20 µM | 37.7% | 44.1% |  |  |
| CNC(CN)CN1Cc2ccccc2C(CNC2CCCCC2)C1c1ccc(C(F)(F)F)cc1 (stereo not shown) [TRG 2405-148] | 8.95 µM | 10.3 µM | 63.7% | 57.4% |  |  |
| CNC(CN)CN1Cc2ccccc2C(CNC2CCCCC2)C1c1ccc([N+](=O)[O-])o1 (stereo not shown) [TRG 2405-170] | 10.2 µM | 4.81 µM | 68.4% | 57.5% |  |  |
| CNC(CN)CCCCN1Cc2ccccc2C(CNCc2ccccc2O)C1c1cccn1C (stereo not shown) [TRG 2406-1] |  |  |  |  | 5.85 µM | 3.79 µM |
| NCCN1Cc2ccccc2C(CNCc2ccccc2O)C1c1cccc(Oc2ccc(Cl)c(Cl)c2)c1 (stereo not shown) [TRG 2406-2] |  |  |  |  | 3.86 µM | 7.86 µM |
| CNC(CN)CN1Cc2ccccc2C(CNCc2ccccc2O)C1c1cccc(Oc2ccc(Cl)c(Cl)c2)c1 (stereo not shown) [TRG 2406-3] |  |  |  |  | 9.69 µM | 12.3 µM |
| COc1ccc(Oc2cccc(C3C(CNCc4ccccc4O)c4ccccc4CN3CCN)c2)cc1 (stereo not shown) [TRG 2406-5] |  |  |  |  | 3.41 µM | 6.16 µM |
| CNC(CN)CN1Cc2ccccc2C(CNCc2ccccc2O)C1c1cccc(Oc2ccc(OC)cc2)c1 (stereo not shown) [TRG 2406-6] |  |  |  |  | 1.36 µM | 3.17 µM |
| CNC(CN)CCCCN1Cc2ccccc2C(CNCc2ccccc2O)C1c1cccc(Oc2ccc(OC)cc2)c1 (stereo not shown) [TRG 2406-7] |  |  |  |  | 1.74 µM | 1.23 µM |
| NCCN1Cc2ccccc2C(CNCc2ccccc2O)C1c1cccc(Oc2ccccc2)c1 (stereo not shown) [TRG 2406-8] |  |  |  |  | 5.67 µM | 7.48 µM |
| CNC(CN)CN1Cc2ccccc2C(CNCc2ccccc2O)C1c1cccc(Oc2ccccc2)c1 (stereo not shown) [TRG 2406-9] |  |  |  |  | 2.1 µM | 3.66 µM |
| CNC(CN)CCCCN1Cc2ccccc2C(CNCc2ccccc2O)C1c1cccc(Oc2ccccc2)c1 (stereo not shown) [TRG 2406-10] |  |  |  |  | 0.26 µM | 0.85 µM |
| CNC(CN)CN1Cc2ccccc2C(CNCc2ccccc2O)C1c1ccc(Oc2ccccc2)cc1 (stereo not shown) [TRG 2406-12] |  |  |  |  | 2.62 µM | 5.44 µM |
| CNC(CN)CCCCN1Cc2ccccc2C(CNCc2ccccc2O)C1c1ccc(Oc2ccccc2)cc1 (stereo not shown) [TRG 2406-13] |  |  |  |  | 1.29 µM | 0.18 µM |
| CCCOc1ccc(C2C(CNCc3ccccc3O)c3ccccc3CN2CCN)cc1 (stereo not shown) [TRG 2406-14] |  |  |  |  | 5.36 µM | 8.31 µM |
| CCCOc1ccc(C2C(CNCc3ccccc3O)c3ccccc3CN2CC(CN)NC)cc1 (stereo not shown) [TRG 2406-15] |  |  |  |  | 2.75 µM | 7.22 µM |
| CCCOc1ccc(C2C(CNCc3ccccc3O)c3ccccc3CN2CCCCC(CN)NC)cc1 (stereo not shown) [TRG 2406-16] |  |  |  |  | 11.6 µM | 2.12 µM |
| CCn1c2ccccc2c2cc(C3C(CNCc4ccccc4O)c4ccccc4CN3CCN)ccc21 (stereo not shown) [TRG 2406-20] |  |  |  |  | 3.3 µM | 10.8 µM |
| CCn1c2ccccc2c2cc(C3C(CNCc4ccccc4O)c4ccccc4CN3CC(CN)NC)ccc21 (stereo not shown) [TRG 2406-21] |  |  |  |  | 1.53 µM | 6.25 µM |
| CCn1c2ccccc2c2cc(C3C(CNCc4ccccc4O)c4ccccc4CN3CCCCC(CN)NC)ccc21 (stereo not shown) [TRG 2406-22] |  |  |  |  | 1.79 µM | 2.12 µM |
| CNC(CN)CCCCN1Cc2ccccc2C(CN(C)c2ccccc2)C1c1ccc(Cl)cc1Cl (stereo not shown) [TRG 2407-2] |  |  |  |  | 6.26 µM | 5.75 µM |
| CNC(CN)CCCCN1Cc2ccccc2C(CNc2ccccc2Cl)C1c1ccc(Cl)cc1Cl (stereo not shown) [TRG 2407-3] |  |  |  |  | 9.45 µM | 8.46 µM |
| CNC(CN)CCCCN1Cc2ccccc2C(CNc2ccccc2OC)C1c1ccc(Cl)cc1Cl (stereo not shown) [TRG 2407-4] |  |  |  |  | 4.12 µM | 3.65 µM |
| CNC(CN)CCCCN1Cc2ccccc2C(CNc2cccc(Cl)c2)C1c1ccc(Cl)cc1Cl (stereo not shown) [TRG 2407-5] |  |  |  |  | 14.7 µM | 8.82 µM |
| CCOc1cccc(NCC2c3ccccc3CN(CCCCC(CN)NC)C2c2ccc(Cl)cc2Cl)c1 (stereo not shown) [TRG 2407-6] |  |  |  |  | 6.97 µM | 3.42 µM |
